Experimental data: ChEMBL document CHEMBL2150935, “Synthesis, biological evaluation and chemometric analysis of indazole derivatives. 1,2-Disubstituted 5-nitroindazolinones, new prototypes of antichagasic drug” (Eur J Med Chem, 2012)
Values belong to the compound of their own block, whether it stands above or below them.

Tests used:
[1] = system: Trypanosoma cruzi; experiment: Growth inhibition of epimastigote form of Trypanosoma cruzi CL-B5 at 128 uM after 72 hrs by lacZ reporter gene assay; type: functional; settings: CL-B5, 72 h, read-out: GI
[2] = Growth inhibition of mouse J774 cells at 256 uM after 24 hrs by resazurin reduction assay; type: cell-based; settings: read-out: GI
[3] = system: Trypanosoma cruzi; experiment: Growth inhibition of epimastigote form of Trypanosoma cruzi CL-B5 at 256 uM after 72 hrs by lacZ reporter gene assay; type: functional; settings: CL-B5, 72 h, read-out: GI
[4] = Growth inhibition of mouse J774 cells at 128 uM after 24 hrs by resazurin reduction assay; type: cell-based; settings: read-out: GI
[5] = system: Trypanosoma cruzi; experiment: Growth inhibition of epimastigote form of Trypanosoma cruzi CL-B5 at 64 uM after 72 hrs by lacZ reporter gene assay; type: functional; settings: CL-B5, 72 h, read-out: GI
[6] = Growth inhibition of mouse J774 cells at 64 uM after 24 hrs by resazurin reduction assay; type: cell-based; settings: read-out: GI
[7] = system: Trypanosoma cruzi; experiment: Growth inhibition of epimastigote form of Trypanosoma cruzi CL-B5 at 32 uM after 72 hrs by lacZ reporter gene assay; type: functional; settings: CL-B5, 72 h, read-out: GI
[8] = Growth inhibition of mouse J774 cells at 32 uM after 24 hrs by resazurin reduction assay; type: cell-based; settings: read-out: GI
[9] = system: Trypanosoma cruzi; experiment: Growth inhibition of epimastigote form of Trypanosoma cruzi CL-B5 at 16 uM after 72 hrs by lacZ reporter gene assay; type: functional; settings: CL-B5, 72 h, read-out: GI
[10] = Growth inhibition of mouse J774 cells at 16 uM after 24 hrs by resazurin reduction assay; type: cell-based; settings: read-out: GI
[11] = system: Trypanosoma cruzi; experiment: Growth inhibition of epimastigote form of Trypanosoma cruzi CL-B5 at 8 uM after 72 hrs by lacZ reporter gene assay; type: functional; settings: CL-B5, 72 h, read-out: GI
[12] = Growth inhibition of mouse J774 cells at 8 uM after 24 hrs by resazurin reduction assay; type: cell-based; settings: read-out: GI
[13] = system: Trypanosoma cruzi; experiment: Growth inhibition of epimastigote form of Trypanosoma cruzi CL-B5 at 5 uM after 72 hrs by lacZ reporter gene assay; type: functional; settings: CL-B5, 72 h, read-out: GI
[14] = Growth inhibition of mouse J774 cells at 5 uM after 24 hrs by resazurin reduction assay; type: cell-based; settings: read-out: GI
[15] = system: Trypanosoma cruzi; experiment: Growth inhibition of epimastigote form of Trypanosoma cruzi CL-B5 at 2.5 uM after 72 hrs by lacZ reporter gene assay; type: functional; settings: CL-B5, 72 h, read-out: GI
[16] = Growth inhibition of mouse J774 cells at 2.5 uM after 24 hrs by resazurin reduction assay; type: cell-based; settings: read-out: GI
[17] = system: Trypanosoma cruzi; experiment: Growth inhibition of epimastigote form of Trypanosoma cruzi CL-B5 at 1.25 uM after 72 hrs by lacZ reporter gene assay; type: functional; settings: CL-B5, 72 h, read-out: GI
[18] = Growth inhibition of mouse J774 cells at 1.25 uM after 24 hrs by resazurin reduction assay; type: cell-based; settings: read-out: GI
[19] = system: Trypanosoma cruzi; experiment: Growth inhibition of epimastigote form of Trypanosoma cruzi CL-B5 at 0.625 uM after 72 hrs by lacZ reporter gene assay; type: functional; settings: CL-B5, 72 h, read-out: GI
[20] = Growth inhibition of mouse J774 cells at 0.625 uM after 24 hrs by resazurin reduction assay; type: cell-based; settings: read-out: GI
[21] = system: Trypanosoma cruzi; experiment: Growth inhibition of epimastigote form of Trypanosoma cruzi CL-B5 after 72 hrs by lacZ reporter gene assay; type: functional, organism-based; settings: CL-B5, 72 h
[22] = Growth inhibition of mouse J774 cells at 4 uM after 24 hrs by resazurin reduction assay; type: cell-based; settings: read-out: GI
[23] = system: Trypanosoma cruzi; experiment: Growth inhibition of epimastigote form of Trypanosoma cruzi CL-B5 at 2 uM after 72 hrs by lacZ reporter gene assay; type: functional; settings: CL-B5, 72 h, read-out: GI
[24] = Growth inhibition of mouse J774 cells at 2 uM after 24 hrs by resazurin reduction assay; type: cell-based; settings: read-out: GI
[25] = system: Trypanosoma cruzi; experiment: Growth inhibition of epimastigote form of Trypanosoma cruzi CL-B5 at 1 uM after 72 hrs by lacZ reporter gene assay; type: functional; settings: CL-B5, 72 h, read-out: GI
[26] = Growth inhibition of mouse J774 cells at 1 uM after 24 hrs by resazurin reduction assay; type: cell-based; settings: read-out: GI
[27] = system: Trypanosoma cruzi; experiment: Growth inhibition of epimastigote form of Trypanosoma cruzi CL-B5 at 4 uM after 72 hrs by lacZ reporter gene assay; type: functional; settings: CL-B5, 72 h, read-out: GI

Structure (SMILES): Cn1c(=O)c2cc([N+](=O)[O-])ccc2n1Cc1ccccc1
inhibition of growth at 128 µM [1]: 70.3% | inhibition at 24 h, 256 µM [2]: 6.33% | inhibition of growth at 256 µM [3]: 80.6% | inhibition at 24 h, 128 µM [4]: 6.91% | inhibition of growth at 64 µM [5]: 39.8% | inhibition at 24 h, 64 µM [6]: 0.55%

IC50 [21]: 930 nM
Structure (SMILES): CCCn1c2ccc([N+](=O)[O-])cc2c(=O)n1Cc1ccccc1
inhibition of growth at 128 µM [1]: 92.8% | inhibition at 24 h, 256 µM [2]: 0% | inhibition of growth at 256 µM [3]: 94.8% | inhibition at 24 h, 128 µM [4]: 0% | inhibition of growth at 64 µM [5]: 92.7% | inhibition at 24 h, 64 µM [6]: 0% | inhibition of growth at 32 µM [7]: 100% | inhibition at 24 h, 32 µM [8]: 0% | inhibition of growth at 16 µM [9]: 100% | inhibition at 24 h, 16 µM [10]: 0% | inhibition of growth at 8 µM [11]: 100% | inhibition at 24 h, 8 µM [12]: 0% | inhibition of growth at 5 µM [13]: 61.5% | inhibition at 24 h, 5 µM [14]: 0.64% | inhibition of growth at 2.5 µM [15]: 59.8% | inhibition at 24 h, 2.5 µM [16]: 0.85% | inhibition of growth at 1.25 µM [17]: 59.5% | inhibition at 24 h, 1.25 µM [18]: 0.14% | inhibition of growth at 0.625 µM [19]: 56.2% | inhibition at 24 h, 0.625 µM [20]: 4.18%

IC50 [21]: 1170 nM
Structure (SMILES): CCCCn1c2ccc([N+](=O)[O-])cc2c(=O)n1Cc1ccccc1
inhibition of growth at 128 µM [1]: 88.3% | inhibition at 24 h, 256 µM [2]: 81.6% | inhibition of growth at 256 µM [3]: 84% | inhibition at 24 h, 128 µM [4]: 67.5% | inhibition of growth at 64 µM [5]: 82.8% | inhibition at 24 h, 64 µM [6]: 33.3% | inhibition of growth at 32 µM [7]: 100% | inhibition at 24 h, 32 µM [8]: 27.1% | inhibition of growth at 16 µM [9]: 100% | inhibition at 24 h, 16 µM [10]: 7.92% | inhibition of growth at 8 µM [11]: 93% | inhibition at 24 h, 8 µM [12]: 7.65% | inhibition of growth at 5 µM [13]: 61.7% | inhibition at 24 h, 5 µM [14]: 2.36% | inhibition of growth at 2.5 µM [15]: 58.2% | inhibition at 24 h, 2.5 µM [16]: 1.92% | inhibition of growth at 1.25 µM [17]: 55.9% | inhibition at 24 h, 1.25 µM [18]: 5.37% | inhibition of growth at 0.625 µM [19]: 49.7% | inhibition at 24 h, 0.625 µM [20]: 0.14%

Structure (SMILES): Cn1c2ccc([N+](=O)[O-])cc2c(=O)n1-c1ccccc1
inhibition of growth at 128 µM [1]: 84.3% | inhibition at 24 h, 256 µM [2]: 20.7% | inhibition of growth at 256 µM [3]: 89.1% | inhibition at 24 h, 128 µM [4]: 9.95% | inhibition of growth at 64 µM [5]: 81.8% | inhibition at 24 h, 64 µM [6]: 0%

IC50 [21]: 2390 nM
Structure (SMILES): CC(C)n1c2ccc([N+](=O)[O-])cc2c(=O)n1Cc1ccccc1
inhibition of growth at 128 µM [1]: 88.3% | inhibition at 24 h, 256 µM [2]: 0% | inhibition of growth at 256 µM [3]: 90.4% | inhibition at 24 h, 128 µM [4]: 0% | inhibition of growth at 64 µM [5]: 87.6% | inhibition at 24 h, 64 µM [6]: 14.5% | inhibition of growth at 32 µM [7]: 100% | inhibition at 24 h, 32 µM [8]: 0% | inhibition of growth at 16 µM [9]: 97.6% | inhibition at 24 h, 16 µM [10]: 0% | inhibition of growth at 8 µM [11]: 80.3% | inhibition at 24 h, 8 µM [12]: 10.3% | inhibition at 24 h, 4 µM [22]: 65.2% | inhibition of growth at 2 µM [23]: 37.4% | inhibition at 24 h, 2 µM [24]: 8.76% | inhibition of growth at 1 µM [25]: 28% | inhibition at 24 h, 1 µM [26]: 5.87% | inhibition of growth at 4 µM [27]: 4.11%

Structure (SMILES): CCCn1c2ccc([N+](=O)[O-])cc2c(=O)n1C
inhibition of growth at 128 µM [1]: 7.92% | inhibition at 24 h, 256 µM [2]: 0% | inhibition of growth at 256 µM [3]: 11.6% | inhibition at 24 h, 128 µM [4]: 0% | inhibition of growth at 64 µM [5]: 3.05% | inhibition at 24 h, 64 µM [6]: 0%

Structure (SMILES): CC(C)n1c2ccc([N+](=O)[O-])cc2c(=O)n1C
inhibition of growth at 128 µM [1]: 10.5% | inhibition at 24 h, 256 µM [2]: 0% | inhibition of growth at 256 µM [3]: 13.2% | inhibition at 24 h, 128 µM [4]: 0% | inhibition of growth at 64 µM [5]: 7.45% | inhibition at 24 h, 64 µM [6]: 0%

Structure (SMILES): CCCn1c2ccc([N+](=O)[O-])cc2c(=O)n1-c1ccccc1
inhibition of growth at 128 µM [1]: 76.5% | inhibition at 24 h, 256 µM [2]: 0% | inhibition of growth at 256 µM [3]: 86.1% | inhibition at 24 h, 128 µM [4]: 0% | inhibition of growth at 64 µM [5]: 71.8% | inhibition at 24 h, 64 µM [6]: 0%

Structure (SMILES): CC(C)n1c2ccc([N+](=O)[O-])cc2c(=O)n1-c1ccccc1
inhibition of growth at 128 µM [1]: 54.7% | inhibition at 24 h, 256 µM [2]: 16.8% | inhibition of growth at 256 µM [3]: 84% | inhibition at 24 h, 128 µM [4]: 0% | inhibition of growth at 64 µM [5]: 28.3% | inhibition at 24 h, 64 µM [6]: 0%

Structure (SMILES): Cn1c2ccc([N+](=O)[O-])cc2c(=O)n1CCc1ccccc1
inhibition of growth at 128 µM [1]: 29.1% | inhibition at 24 h, 256 µM [2]: 0% | inhibition of growth at 256 µM [3]: 23.4% | inhibition at 24 h, 128 µM [4]: 0% | inhibition of growth at 64 µM [5]: 49.6% | inhibition at 24 h, 64 µM [6]: 0%
